We go through 37 molecules from patent US7897765B2, “Therapeutic compounds and uses thereof” (Elixir Pharmaceuticals, Inc., priority 2003, dated 2011).

The target in the assay is GHS-R (Homo sapiens, UniProt Q92847). As to the kind of experiment: cell based assay of GHS-R antagonist/agonist activity. The following applies: GHS-R antagonist Ki and/or agonist EC50 class. Also on record: key: A refers to a compound having antagonist activity with Ki<100 nM in a cell based assay; B refers to a compound having agonist activity with EC50<100 nM in a cell based assay; C refers to a compound having antagonist activity of Ki>100 nM and <1500 nM in a cell based assay; D refers to a compound having antagonist activity with Ki, <100 nM and agonist activity with EC50<100 nM in a cell-based assay; E refers to other exemplary compounds. Here is the method:
Cell-Based Activity Assays. For example, the ability of the compound to modulate accumulation of a second messenger signaling component downstream of GHS-R can be evaluated. For example, inositol phosphates (IP), as a result of Gq signaling in a mammalian cell, e.g., a Cos-7 cells. Other tissue culture cells, Xenopus oocytes, and primary cells can also be used.
Phosphatidylinositol turnover assay. One day after transfection COS-7 cells are incubated for 24 hours with 5 μCi of [^3H]-myo-inositol in 1 ml medium supplemented with 10% fetal calf serum, 2 mM glutamine and 0.01 mg/ml gentamicin per well. Cells are then washed twice in buffer, 20 mM HEPES, pH 7.4, supplemented with 140 mM NaCl, 5 mM KCl, 1 mM MgSO4, 1 mM CaCl2, mM glucose, 0.05% (w/v) bovine serum; and incubated in 0.5 ml buffer supplemented with 10 mM LiCl at 37° C. for 30 min. For some assays, it is also useful to incubate the cells with adenosine deaminase ADA (200 U/mg, Boehringer Mannheim, Germany) for 30 min in a concentration of 1 U/ml.
After incubation with the compound of interest for 45 min at 37° C., cells are extracted with 10% ice-cold perchloric acid and placed on ice for 30 min. The resulting supernatants are neutralized with KOH in HEPES buffer, and [^3H]-inositol phosphate is purified on Bio-Rad AG 1-X8 anion exchange resin as described. Assays can be run in duplicate, triplicate, etc.
Other second messenger assays. Another second messenger that can be evaluated is Ca^2+. Ca^2+ mobilization can be evaluated using a calcium sensitive detector, such as aequorin protein or a dye, e.g., FURA-2. In an exemplary assay, calcium mobilization is evaluated in a recombinant cell that expresses GHS-R and aequorin.
Gene expression assay. HEK293 cells (30 000 cells/well) seeded in 96-well plates are transiently transfected with a mixture of pFA2-CREB and pFR-Luc reporter plasmid (PathDetect™ CREB trans-Reporting System, Stratagene) and nucleic acid encoding GHS. One day after transfection, cells are treated with the compound of interest in an assay volume of 100 μl medium for 5 hrs. After treatment, cells are cultured in low serum (2.5%). After the incubation period, the assay is ended by washing the cells twice with PBS and adding 100 μl luciferase assay reagent (LucLite™, Packard Bioscience). Luminescence is measured (e.g., as relative light units (RLU)) using in a luminometer such as the TopCounter™ (Packard Bioscience) for 5 sec.
IC50 and EC50 values can be determined by nonlinear regression, e.g., using the Prism 3.0 software (GraphPad Software, San Diego).

Chain of GHS-R (Q92847 whole entry, species assumed): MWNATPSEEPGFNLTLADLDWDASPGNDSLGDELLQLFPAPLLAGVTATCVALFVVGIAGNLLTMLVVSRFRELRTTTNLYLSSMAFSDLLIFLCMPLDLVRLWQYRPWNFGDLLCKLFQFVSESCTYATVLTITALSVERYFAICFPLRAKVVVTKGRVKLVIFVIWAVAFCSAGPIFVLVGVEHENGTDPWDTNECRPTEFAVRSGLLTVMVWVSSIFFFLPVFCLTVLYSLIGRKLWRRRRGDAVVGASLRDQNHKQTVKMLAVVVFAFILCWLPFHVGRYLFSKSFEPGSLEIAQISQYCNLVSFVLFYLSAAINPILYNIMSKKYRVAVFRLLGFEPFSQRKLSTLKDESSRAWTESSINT

Regarding `CS(=O)(=O)N1CC2(CCN(C(=O)[C@@H](COCc3ccccc3)NC(=O)C3CNC3)CC2)c2ccccc21` [Compound 36], the Activity result was “C (C refers to a compound having antagonist activity of Ki>100 nM and <1500 nM in a cell based assay)”.
`CN(C)CC(=O)N[C@H](COCc1ccccc1)C(=O)N1CCC2(C=Cc3ccccc32)CC1` [Compound 29]: the Activity entry was “C (C refers to a compound having antagonist activity of Ki>100 nM and <1500 nM in a cell based assay)”.
For `CN(C)C[C@H]1CCC[C@@H](CNC(=O)[C@@H](Cc2c[nH]c3ccccc23)NC(=O)N2CCC3(C=Cc4ccccc43)CC2)C1` [Compound 5], the Activity result was “A (A refers to a compound having antagonist activity with Ki<100 nM in a cell based assay)”.
Then `COc1cccc(NC(=O)N2CC3(CCN(C(=O)[C@@H](COCc4ccccc4)NC(=O)OC(C)(C)C)CC3)c3ccccc32)c1` [Compound 65], with “E”.
Then `CCCN1CCC(C(=O)N[C@H](COCc2ccccc2)C(=O)N2CCC3(CC2)CN(S(C)(=O)=O)c2ccccc23)CC1` [Compound 38], with “C (C refers to a compound having antagonist activity of Ki>100 nM and <1500 nM in a cell based assay)”; and `CS(=O)(=O)N1CC2(CCN(C(=O)[C@@H](COCc3ccccc3)NS(=O)(=O)CCN3CCOCC3)CC2)c2ccccc21` [Compound 144], with “E”; and `COC(=O)CC(=O)N1CC2(CCN(C(=O)[C@@H](COCc3ccccc3)NC(=O)OC(C)(C)C)CC2)c2ccccc21` [Compound 60], with “E”.
In the case of `CS(=O)(=O)N1CC2(CCN(C(=O)[C@@H](COCc3ccccc3)NS(=O)(=O)CCCN3CCCC3)CC2)c2ccccc21` [Compound 159], the Activity result was “A (A refers to a compound having antagonist activity with Ki<100 nM in a cell based assay)”.
Under `CN1CCN(CC(=O)N[C@H](COCc2ccccc2)C(=O)N2CCC3(CC2)CN(S(C)(=O)=O)c2ccccc23)CC1` [Compound 91] stands “E”; under `CCN(C)CCS(=O)(=O)N[C@H](COCc1ccccc1)C(=O)N1CCC2(CC1)CN(S(C)(=O)=O)c1ccccc12` [Compound 35], “C (C refers to a compound having antagonist activity of Ki>100 nM and <1500 nM in a cell based assay)”.
`CC1=NCCC(C(=O)N[C@H](COCc2ccccc2)C(=O)N2CCC3(CC2)CN(S(C)(=O)=O)c2ccccc23)N1` (stereo partly shown) [Compound 112]: the Activity result was “E”.
Take `CC(C)(C)CC(=O)N[C@H](COCc1ccccc1)C(=O)N1CCC2(CC1)CN(S(C)(=O)=O)c1ccccc12` [Compound 52]: the Activity entry is “E”.
As to `CS(=O)(=O)N1CC2(CCN(C(=O)[C@@H](COCc3ccccc3)NC(=O)C3CCCNC3)CC2)c2ccccc21` (stereo partly shown) [Compound 4], the Activity result is “D (D refers to a compound having antagonist activity with Ki, <100 nM and agonist activity with EC50<100 nM in a cell-based assay)”.
Regarding `CN1CCC(C(=O)N[C@H](Cc2ccccc2)C(=O)N2CCC3(CC2)CN(S(C)(=O)=O)c2ccccc23)CC1` [Compound 45], the Activity entry is “C (C refers to a compound having antagonist activity of Ki>100 nM and <1500 nM in a cell based assay)”.
Under `CC(C)(C)OC(=O)N[C@H](COCc1ccccc1)C(=O)N1CCC2(CC1)CN(C(=O)CO)c1ccccc12` [Compound 61] stands “E”; under `CN(C)CCCS(=O)(=O)N[C@H](COCc1ccccc1)C(=O)N1CCC2(CC1)CN(S(C)(=O)=O)c1ccccc12` [Compound 156], “E”.
In the case of `CC(C)(C)OC(=O)N[C@H](COCc1ccccc1)C(=O)N1CCC2(CC1)CN(C(=O)Cn1ccnc1)c1ccccc12` [Compound 66], the Activity entry is “E”.
As for `COCCN1CCC(C(=O)N[C@H](COCc2ccccc2)C(=O)N2CCC3(CC2)CN(S(C)(=O)=O)c2ccccc23)CC1` [Compound 33], the Activity result was “C (C refers to a compound having antagonist activity of Ki>100 nM and <1500 nM in a cell based assay)”.
Then `CS(=O)(=O)N1CC2(CCN(C(=O)[C@@H](COCc3ccccc3)NS(=O)(=O)CCN3CCCCC3)CC2)c2ccccc21.Cl` [Compound 37], with “C (C refers to a compound having antagonist activity of Ki>100 nM and <1500 nM in a cell based assay)”; and `CCN(CC)CCC(=O)N[C@H](COCc1ccccc1)C(=O)N1CCC2(CC1)CN(S(C)(=O)=O)c1ccccc12` [Compound 111], with “E”.
Regarding `CN[C@@H](C)C(=O)N[C@H](COCc1ccccc1)C(=O)N1CCC2(CC1)CN(S(C)(=O)=O)c1ccccc12` [Compound 129], the Activity entry was “B (B refers to a compound having agonist activity with EC50<100 nM in a cell based assay)”.
Under `CS(=O)(=O)N1CC2(CCN(C(=O)[C@@H](COCc3ccccc3)NC(=O)NCCN3CCCCC3)CC2)c2ccccc21` [Compound 97] stands “E”; under `C=CS(=O)(=O)N[C@H](COCc1ccccc1)C(=O)N1CCC2(CC1)CN(S(C)(=O)=O)c1ccccc12` [Compound 147], “E”; under `CC(C)(C)NCCCS(=O)(=O)N[C@H](COCc1ccccc1)C(=O)N1CCC2(CC1)CN(S(C)(=O)=O)c1ccccc12` [Compound 150], “A (A refers to a compound having antagonist activity with Ki<100 nM in a cell based assay)”.
Regarding `CCN(CC)CCCS(=O)(=O)N(C)[C@H](COCc1ccccc1)C(=O)N1CCC2(CC1)CN(S(C)(=O)=O)c1ccccc12` [Compound 162], the Activity entry is given as “A (A refers to a compound having antagonist activity with Ki<100 nM in a cell based assay)”.
Regarding `CS(=O)(=O)N1CC2(CCN(C(=O)[C@@H](COCc3ccccc3)NC(=O)C[C@@H]3CCCN3)CC2)c2ccccc21` [Compound 23], the Activity result was “C (C refers to a compound having antagonist activity of Ki>100 nM and <1500 nM in a cell based assay)”.
For the molecule `CS(=O)(=O)N1CC2(CCN(C(=O)[C@@H](COCc3ccccc3)NC(=O)[C@@H]3C=CCN3)CC2)c2ccccc21` [Compound 18], the Activity result was “C (C refers to a compound having antagonist activity of Ki>100 nM and <1500 nM in a cell based assay)”.
Then `CS(=O)(=O)N1CC2(CCN(C(=O)[C@@H](COCc3ccccc3)NC(=O)CN3CCC3)CC2)c2ccccc21` [Compound 39], with “C (C refers to a compound having antagonist activity of Ki>100 nM and <1500 nM in a cell based assay)”; and `CN(C)CC(=O)N[C@H](COCc1ccccc1)C(=O)N1CCC2(CC1)CN(S(=O)(=O)CC(F)(F)F)c1ccccc12` [Compound 47], with “C (C refers to a compound having antagonist activity of Ki>100 nM and <1500 nM in a cell based assay)”; and `COCC(=O)N1CC2(CCN(C(=O)[C@@H](COCc3ccccc3)NC(=O)CN(C)C)CC2)c2ccccc21` [Compound 73], with “E”.
For the molecule `CC(C)NCCCS(=O)(=O)N[C@H](COCc1ccccc1)C(=O)N1CCC2(CC1)CN(S(C)(=O)=O)c1ccccc12` [Compound 148], the Activity entry is reported as “A (A refers to a compound having antagonist activity with Ki<100 nM in a cell based assay)”.
Consider `CCN1CC=C(C(=O)N[C@H](COCc2ccccc2)C(=O)N2CCC3(CC2)CN(S(C)(=O)=O)c2ccccc23)CC1` [Compound 100], for which the Activity result is reported as “E”.
On to `CN1CCC(N[C@H](COCc2ccccc2)C(=O)N2CCC3(CC2)CN(S(C)(=O)=O)c2ccccc23)CC1` [Compound 84], for which the Activity result is on record as “E”.
As to `CS(=O)(=O)N1CC2(CCN(C(=O)[C@@H](COCc3ccccc3)NS(=O)(=O)CCN3CCCC3)CC2)c2ccccc21.Cl` [Compound 28], the Activity entry is “C (C refers to a compound having antagonist activity of Ki>100 nM and <1500 nM in a cell based assay)”.
As for `CN1CCC(C(=O)NC(Cc2ccc3ccccc3c2)C(=O)N2CCC3(CC2)CN(S(C)(=O)=O)c2ccccc23)CC1` (stereo not shown) [Compound 138], the Activity entry is listed as “E”.
With `CS(=O)(=O)N1CC2(CCN(C(=O)[C@@H](COCc3ccccc3)NC(=O)[C@@H]3CCC[C@H](CN)C3)CC2)c2ccccc21` [Compound 114], the Activity entry was “E”.
In the case of `CC(C)(C)NC(=O)N[C@H](COCc1ccccc1)C(=O)N1CCC2(CC1)CN(S(C)(=O)=O)c1ccccc12` [Compound 17], the Activity result was “C (C refers to a compound having antagonist activity of Ki>100 nM and <1500 nM in a cell based assay)”.
